molecular target: T1, FLT3 K663Q (Homo sapiens, UniProt P36888, K663Q); assay: DiscoverX KINOMEscan competition binding, FLT3 K663Q
T1 construct: host or cells: E. coli BL21-derived host (T7 phage) or HEK-293
T1 sequence (P36888 27-993 K663Q): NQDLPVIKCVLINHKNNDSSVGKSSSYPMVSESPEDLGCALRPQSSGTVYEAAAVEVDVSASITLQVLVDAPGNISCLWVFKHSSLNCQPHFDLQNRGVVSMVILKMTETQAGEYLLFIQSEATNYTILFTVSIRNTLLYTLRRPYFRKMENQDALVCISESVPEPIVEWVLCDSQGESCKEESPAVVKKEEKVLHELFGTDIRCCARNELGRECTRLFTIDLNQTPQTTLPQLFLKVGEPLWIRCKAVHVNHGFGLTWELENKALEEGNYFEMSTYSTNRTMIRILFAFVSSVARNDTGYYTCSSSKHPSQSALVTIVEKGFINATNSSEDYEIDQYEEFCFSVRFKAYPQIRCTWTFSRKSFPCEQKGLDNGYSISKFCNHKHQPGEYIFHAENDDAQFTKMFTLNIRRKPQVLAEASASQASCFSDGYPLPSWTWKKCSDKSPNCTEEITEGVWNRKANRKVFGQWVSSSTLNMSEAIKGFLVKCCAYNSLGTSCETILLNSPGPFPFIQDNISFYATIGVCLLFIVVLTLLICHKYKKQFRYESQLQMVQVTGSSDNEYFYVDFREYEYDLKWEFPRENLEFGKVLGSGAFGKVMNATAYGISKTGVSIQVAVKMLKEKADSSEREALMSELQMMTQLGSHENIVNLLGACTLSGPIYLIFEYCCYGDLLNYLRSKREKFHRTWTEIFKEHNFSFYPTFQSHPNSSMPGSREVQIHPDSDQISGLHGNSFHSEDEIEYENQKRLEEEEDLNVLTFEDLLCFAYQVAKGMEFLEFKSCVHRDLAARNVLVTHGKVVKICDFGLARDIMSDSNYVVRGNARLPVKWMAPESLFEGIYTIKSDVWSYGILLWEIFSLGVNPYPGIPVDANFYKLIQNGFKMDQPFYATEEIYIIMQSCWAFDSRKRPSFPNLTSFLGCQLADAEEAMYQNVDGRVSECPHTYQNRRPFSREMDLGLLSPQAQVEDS
Excerpt: Kinase binding data were obtained for various exemplary compounds prepared according to Examples 1-24 using the DiscoverX KINOMVIEscan® active site-directed competition binding site-directed assay protocol described below. […] As a result, the data report thermodynamic interaction affinities (Kd values), rather than IC50 values that are dependent on ATP concentrations. The assay uses a DNA-tagged version of the protein kinase, and an immobilized ligand bound to a solid support. Compounds that directly or indirectly prevent kinase binding to the immobilized ligand reduce the amount of kinase captured on the solid support, which is detected using an ultra-sensitive qPCR method. Affinity constants reported from the assay have been reported to be independent of the immobilized ligand used that is coupled to the solid support (See supplemental information in Fabian, M. A. et. al., (2005) Nat. Biotechnol. 23, 329-336; Wodicka, L. M. et. al., (2010) Chem. Biol. 17, 1241-1249.)
Kinase-tagged T7 phage strains were prepared in an E. coli host derived from the BL21 strain. E. coli were grown to log-phase and infected with T7 phage and incubated with shaking at 32° C. until lysis. The lysates were centrifuged and filtered to remove cell debris. The remaining kinases were produced in HEK-293 cells and subsequently tagged with DNA for qPCR detection. Streptavidin-coated magnetic beads were treated with biotinylated small molecule ligands for 30 minutes at room temperature to generate affinity resins for kinase assays. The liganded beads were blocked with excess biotin and washed with blocking buffer (SeaBlock (Pierce), 1% BSA, 0.05% Tween 20, 1 mM DTT) to remove unbound ligand and to reduce non-specific binding. Binding reactions were assembled by combining kinases, liganded affinity beads, and test compounds in 1× binding buffer (20% SeaBlock, 0.17×PBS, 0.05% Tween 20, 6 mM DTT). Test compounds were prepared as 111× stocks in 100% DMSO. Kds were determined using an 11-point 3-fold compound dilution series with three DMSO control points. All compounds for Kd measurements are distributed by acoustic transfer (non-contact dispensing) in 100% DMSO. The compounds were then diluted directly into the assays such that the final concentration of DMSO was 0.9%. All reactions were performed in polypropylene 384-well plates. Each was a final volume of 0.02 mL. The assay plates were incubated at room temperature with shaking for 1 hour and the affinity beads were washed with wash buffer (1×PBS, 0.05% Tween 20). The beads were then re-suspended in elution buffer (1×PBS, 0.05% Tween 20, 0.5 μM nonbiotinylated affinity ligand) and incubated at room temperature with shaking for 30 minutes. The kinase concentration in the eluates was measured by qPCR.
Binding constants (Kds) were calculated with a standard dose-response curve using the Hill equation. The Hill Slope was set to −1. Curves were fitted using a non-linear least square fit with the Levenberg-Marquardt algorithm.

Row | Compound | Kd
1 | FC(F)(F)C1(c2cn3c(-c4cccc(N[C@@H]5CCNC5)n4)cnc3cn2)CC1 [Compound 10, (R)-N-(pyrrolidin-3-yl)-6-(6-(1-(trifluoromethyl)cyclopropyl)imidazo[1,2-a]pyrazin-3-yl)pyridin-2-amine] | 0.45 nM
2 | FC(F)c1cn2c(-c3cccc(N[C@H]4CNC[C@@H]4F)n3)cnc2cn1 [Compound 16, 6-(6-(difluoromethyl)imidazo[1,2-a]pyrazin-3-yl)-N-((3S,4S)-4-fluoropyrrolidin-3-yl)pyridin-2-amine] | 1.4 nM
3 | FC(F)c1cn2c(-c3cccc(N[C@H]4CNCC[C@@H]4F)n3)cnc2cn1 [Compound 25, 6-(6-(difluoromethyl)imidazo[1,2-a]pyrazin-3-yl)-N-((3S,4S)-4-fluoropiperidin-3-yl)pyridin-2-amine] | 0.59 nM
4 | CC(C)(O)c1cn2c(-c3cccc(N[C@@H]4CCCNC4)n3)cnc2cn1 [Compound 30, (R)-2-(3-(6-(piperidin-3-ylamino)pyridin-2-yl)imidazo[1,2-a]pyrazin-6-yl)propan-2-ol] | 0.83 nM
5 | CC(C)(O)c1cn2c(-c3cccc(N[C@H]4CNCC[C@@H]4F)n3)cnc2cn1 [Compound 31, 2-(3-(6-(((3S,4S)-4-fluoropiperidin-3-yl)amino)pyridin-2-yl)imidazo[1,2-a]pyrazin-6-yl)propan-2-ol] | 2.4 nM
6 | FC(F)(F)COc1cn2c(-c3cccc(N[C@@H]4CCNC4)n3)cnc2cn1 [Compound 38, (R)-N-(pyrrolidin-3-yl)-6-(6-(2,2,2-trifluoroethoxy)imidazo[1,2-a]pyrazin-3-yl)pyridin-2-amine] | 2.3 nM
7 | Cn1cc(-c2cn3c(-c4cccc(N[C@H]5CNC[C@@H]5F)n4)cnc3cn2)cn1 [Compound 52, N-((3S,4S)-4-fluoropyrrolidin-3-yl)-6-(6-(1-methyl-1H-pyrazol-4-yl)imidazo[1,2-a]pyrazin-3-yl)pyridin-2-amine] | 0.82 nM

These reach a lower Kd. Values come first.

Row | Kd | Compound
8 | 0.39 nM | F[C@H]1CNC[C@@H]1Nc1cccc(-c2cnc3cnc(C4CC4)cn23)n1 [Compound 50, 6-(6-cyclopropylimidazo[1,2-a]pyrazin-3-yl)-N-((3S,4S)-4-fluoropyrrolidin-3-yl)pyridin-2-amine]
9 | 0.24 nM | CC1(c2cn3c(-c4cccc(N[C@H]5CNC[C@@H]5F)n4)cnc3cn2)CC1 [Compound 1, N-((3S,4S)-4-fluoropyrrolidin-3-yl)-6-(6-(1-methylcyclopropyl)imidazo[1,2-a]pyrazin-3-yl)pyridin-2-amine]
10 | 0.22 nM | CC1(c2cn3c(-c4cccc(N[C@@H]5CCNC5)n4)cnc3cn2)CC1 [Compound 3, (R)-6-(6-(1-methylcyclopropyl)imidazo[1,2-a]pyrazin-3-yl)-N-(pyrrolidin-3-yl)pyridin-2-amine]
11 | 0.18 nM | CC1(c2cn3c(-c4cccc(N[C@H]5CNCC56CC6)n4)cnc3cn2)CC1 [Compound 5, (R)-N-(6-(6-(1-methylcyclopropyl)imidazo[1,2-a]pyrazin-3-yl)pyridin-2-yl)-5-azaspiro[2.4]heptan-7-amine]
